According to patent US12077503B2, “Substituted cyclic amides and their use as herbicides” (FMC CORPORATION, priority 2015, dated 2024):

Tests used:
Type in all cases: in vivo
[1] = tested on: giant foxtail (Setaria faberi); experiment: Test G Pre-Emergence Protocol; details: Setaria faberi, pre-emergence, 312 h, evaluated after 13 days; for pest or weed control at 15.625 g/ha: 15.625 g ai/ha; for pest or weed control at 15.625 g/ha / pest or weed control at 250 g/ha: read-out: Foxtail, Giant damage rating (100=total damage to plant; 0=no damage to plant); for pest or weed control at 62.5 g/ha: 62.5 g ai/ha, 100=total damage to plant, 0=no damage to plant, read-out: plant damage rating, Foxtail, Giant; for pest or weed control at 250 g/ha: 250 g ai/ha
How it was run: (§1)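 Seeds were sown in standard soil and kept one day in a glasshouse (24/16° C day/night, 14 h light, 65% humidity), then sprayed with compound in acetone/water (50:50) containing 0.5% Tween 20 at 15.625, 62.5 or 250 g/ha. Damage was scored after 13 days (0 = none, 100 = total).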

[2] = tested on: barnyardgrass (Echinochloa crus-galli); experiment: Test G Pre-Emergence Protocol; details: Echinochloa crus-galli, pre-emergence, 312 h, evaluated after 13 days; for pest or weed control at 15.625 g/ha: 15.625 g ai/ha, read-out: Barnyard grass damage rating (100=total damage to plant; 0=no damage to plant); for pest or weed control at 62.5 g/ha: 62.5 g ai/ha, 100=total damage to plant, 0=no damage to plant, read-out: plant damage rating, Barnyardgrass; for pest or weed control at 250 g/ha: 250 g ai/ha, read-out: Barnyardgrass damage rating (100=total damage to plant; 0=no damage to plant)
How it was run: as §1

[3] = tested on: redroot pigweed (Amaranthus retroflexus); experiment: Test G Pre-Emergence Protocol; details: Amaranthus retroflexus, pre-emergence, 312 h, evaluated after 13 days; for pest or weed control at 15.625 g/ha: 15.625 g ai/ha; for pest or weed control at 15.625 g/ha / pest or weed control at 250 g/ha: read-out: Pigweed, Redroot damage rating (100=total damage to plant; 0=no damage to plant); for pest or weed control at 62.5 g/ha: 62.5 g ai/ha, 100=total damage to plant, 0=no damage to plant, read-out: plant damage rating, Pigweed, Redroot; for pest or weed control at 250 g/ha: 250 g ai/ha
How it was run: as §1

[4] = tested on: corn (Zea mays); experiment: Test G Pre-Emergence Protocol; details: Zea mays, pre-emergence, 312 h, evaluated after 13 days; for plant injury at 15.625 g/ha: 15.625 g ai/ha; for plant injury at 15.625 g/ha / plant injury at 250 g/ha: read-out: Corn damage rating (100=total damage to plant; 0=no damage to plant); for plant injury at 62.5 g/ha: 62.5 g ai/ha, 100=total damage to plant, 0=no damage to plant, read-out: plant damage rating, Corn; for plant injury at 250 g/ha: 250 g ai/ha
How it was run: as §1

[5] = tested on: velvetleaf (Abutilon theophrasti); experiment: Test G Pre-Emergence Protocol; details: Abutilon theophrasti, pre-emergence, 312 h, evaluated after 13 days; for pest or weed control at 15.625 g/ha: 15.625 g ai/ha; for pest or weed control at 15.625 g/ha / pest or weed control at 250 g/ha: read-out: Velvetleaf damage rating (100=total damage to plant; 0=no damage to plant); for pest or weed control at 62.5 g/ha: 62.5 g ai/ha, 100=total damage to plant, 0=no damage to plant, read-out: plant damage rating, Velvetleaf; for pest or weed control at 250 g/ha: 250 g ai/ha
How it was run: as §1

[6] = tested on: ivy-leaved morning glory (Ipomoea hederacea); experiment: Test G Pre-Emergence Protocol; details: Ipomoea, pre-emergence, 312 h, evaluated after 13 days; for pest or weed control at 15.625 g/ha: 15.625 g ai/ha, read-out: Morning-glory, Ivy-leaved damage rating (100=total damage to plant; 0=no damage to plant); for pest or weed control at 62.5 g/ha: 62.5 g ai/ha, 100=total damage to plant, 0=no damage to plant, read-out: plant damage rating, Morningglory, Ivy-leaved; for pest or weed control at 250 g/ha: 250 g ai/ha, read-out: Morningglory, Ivy-leaved damage rating (100=total damage to plant; 0=no damage to plant)
How it was run: as §1

[7] = tested on: giant foxtail (Setaria faberi); experiment: Test G Post-Emergence Protocol; details: Setaria faberi, post-emergence, 312 h; for pest or weed control at 15.625 g/ha: 15.625 g ai/ha, evaluated after 13 days (100=total damage to plant; 0=no damage to plant), read-out: Foxtail, Giant damage rating; for pest or weed control at 62.5 g/ha: 62.5 g ai/ha, read-out: Foxtail, Giant damage rating (100=total damage to plant; 0=no damage to plant); for pest or weed control at 62.5 g/ha / pest or weed control at 250 g/ha: evaluated after 13 days; for pest or weed control at 250 g/ha: 250 g ai/ha, read-out: damage to plant, Foxtail, Giant (100=total damage to plant; 0=no damage to plant)
How it was run: (§2)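 Seedlings grown 8 days in soil in a glasshouse (24/16 °C day/night, 14 h light, 65% humidity) were sprayed post-emergence with compound in acetone/water 50:50 plus 0.5% Tween 20 at 15.625, 62.5 or 250 g/ha. Damage was scored after 13 days on a 0–100 scale (100 = total damage).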

[8] = tested on: barnyardgrass (Echinochloa crus-galli); experiment: Test G Post-Emergence Protocol; details: Echinochloa crus-galli, post-emergence, 312 h; for pest or weed control at 15.625 g/ha: 15.625 g ai/ha, evaluated after 13 days (100=total damage to plant; 0=no damage to plant), read-out: Barnyardgrass damage rating; for pest or weed control at 62.5 g/ha: 62.5 g ai/ha, read-out: Barnyardgrass damage rating (100=total damage to plant; 0=no damage to plant); for pest or weed control at 62.5 g/ha / pest or weed control at 250 g/ha: evaluated after 13 days; for pest or weed control at 250 g/ha: 250 g ai/ha, read-out: damage to plant, Barnyardgrass (100=total damage to plant; 0=no damage to plant)
How it was run: as §2

[9] = tested on: redroot pigweed (Amaranthus retroflexus); experiment: Test G Post-Emergence Protocol; details: Amaranthus retroflexus, post-emergence, 312 h; for pest or weed control at 15.625 g/ha: 15.625 g ai/ha, evaluated after 13 days (100=total damage to plant; 0=no damage to plant), read-out: Pigweed, Redroot damage rating; for pest or weed control at 62.5 g/ha: 62.5 g ai/ha, read-out: Pigweed, Redroot damage rating (100=total damage to plant; 0=no damage to plant); for pest or weed control at 62.5 g/ha / pest or weed control at 250 g/ha: evaluated after 13 days; for pest or weed control at 250 g/ha: 250 g ai/ha, read-out: damage to plant, Pigweed, Redroot (100=total damage to plant; 0=no damage to plant)
How it was run: as §2

[10] = tested on: corn (Zea mays); experiment: Test G Post-Emergence Protocol; details: Zea mays, post-emergence, 312 h; for plant injury at 15.625 g/ha: 15.625 g ai/ha, evaluated after 13 days (100=total damage to plant; 0=no damage to plant), read-out: Corn damage rating; for plant injury at 62.5 g/ha: 62.5 g ai/ha, read-out: Corn damage rating (100=total damage to plant; 0=no damage to plant); for plant injury at 62.5 g/ha / plant injury at 250 g/ha: evaluated after 13 days; for plant injury at 250 g/ha: 250 g ai/ha, read-out: damage to plant, Corn (100=total damage to plant; 0=no damage to plant)
How it was run: as §2

[11] = tested on: velvetleaf (Abutilon theophrasti); experiment: Test G Post-Emergence Protocol; details: Abutilon theophrasti, post-emergence, 312 h; for pest or weed control at 15.625 g/ha: 15.625 g ai/ha, evaluated after 13 days (100=total damage to plant; 0=no damage to plant), read-out: Velvetleaf damage rating; for pest or weed control at 62.5 g/ha: 62.5 g ai/ha, read-out: Velvetleaf damage rating (100=total damage to plant; 0=no damage to plant); for pest or weed control at 62.5 g/ha / pest or weed control at 250 g/ha: evaluated after 13 days; for pest or weed control at 250 g/ha: 250 g ai/ha, read-out: damage to plant, Velvetleaf (100=total damage to plant; 0=no damage to plant)
How it was run: as §2

[12] = tested on: ivy-leaved morning glory (Ipomoea hederacea); experiment: Test G Post-Emergence Protocol; details: Ipomoea, post-emergence, 312 h; for pest or weed control at 15.625 g/ha: 15.625 g ai/ha, evaluated after 13 days (100=total damage to plant; 0=no damage to plant), read-out: Morningglory, Ivy-leaved damage rating; for pest or weed control at 62.5 g/ha: 62.5 g ai/ha, read-out: Morningglory, Ivy-leaved damage rating (100=total damage to plant; 0=no damage to plant); for pest or weed control at 62.5 g/ha / pest or weed control at 250 g/ha: evaluated after 13 days; for pest or weed control at 250 g/ha: 250 g ai/ha, read-out: damage to plant, Morningglory, Ivy-leaved (100=total damage to plant; 0=no damage to plant)
How it was run: as §2

Row | Structure (SMILES) | pest or weed control at 15.625 g/ha [1] | pest or weed control at 62.5 g/ha [1] | pest or weed control at 250 g/ha [1] | pest or weed control at 15.625 g/ha [2] | pest or weed control at 62.5 g/ha [2] | pest or weed control at 250 g/ha [2] | pest or weed control at 15.625 g/ha [3] | pest or weed control at 62.5 g/ha [3] | pest or weed control at 250 g/ha [3] | plant injury at 15.625 g/ha [4] | plant injury at 62.5 g/ha [4] | plant injury at 250 g/ha [4] | pest or weed control at 15.625 g/ha [5] | pest or weed control at 62.5 g/ha [5] | pest or weed control at 250 g/ha [5] | pest or weed control at 15.625 g/ha [6] | pest or weed control at 62.5 g/ha [6] | pest or weed control at 250 g/ha [6] | pest or weed control at 15.625 g/ha [7] | pest or weed control at 62.5 g/ha [7] | other results
1 | CN1C[C@@H](c2ccc(C(F)(F)F)cc2)[C@H](C(=O)Nc2sccc2C#N)C1=O (racemic) [Compound 1520] | 20% | 60% | 80% | 20% | 50% | 90% | 0% | 0% | 30% | 0% | 0% | 0% | 0% | 0% | 0% | 0% | 0% | 0% | 0% | 30% | pest or weed control at 250 g/ha [7]: 70%; pest or weed control at 15.625 g/ha [8]: 0%; pest or weed control at 62.5 g/ha [8]: 30%; pest or weed control at 250 g/ha [8]: 60%; pest or weed control at 15.625 g/ha [9]: 0%; pest or weed control at 62.5 g/ha [9]: 0%; pest or weed control at 250 g/ha [9]: 10%; plant injury at 15.625 g/ha [10]: 0%; plant injury at 62.5 g/ha [10]: 0%; plant injury at 250 g/ha [10]: 20%; pest or weed control at 15.625 g/ha [11]: 0%; pest or weed control at 62.5 g/ha [11]: 0%; pest or weed control at 250 g/ha [11]: 10%; pest or weed control at 15.625 g/ha [12]: 10%; pest or weed control at 62.5 g/ha [12]: 30%; pest or weed control at 250 g/ha [12]: 40%
2 | CN1C[C@@H](c2ccc(C(F)(F)F)cc2)[C@H](C(=O)Nc2ccnc(F)c2)C1=O (racemic) [Compound 1529] | 0% | 0% | 0% | 0% | 0% | 0% | 0% | 0% | 0% | 0% | 0% | 0% | 0% | 0% | 0% | 0% | 0% | 0% | 0% | 0% | pest or weed control at 250 g/ha [7]: 0%; pest or weed control at 15.625 g/ha [8]: 0%; pest or weed control at 62.5 g/ha [8]: 0%; pest or weed control at 250 g/ha [8]: 0%; pest or weed control at 15.625 g/ha [9]: 0%; pest or weed control at 62.5 g/ha [9]: 0%; pest or weed control at 250 g/ha [9]: 0%; plant injury at 15.625 g/ha [10]: 0%; plant injury at 62.5 g/ha [10]: 0%; plant injury at 250 g/ha [10]: 0%; pest or weed control at 15.625 g/ha [11]: 0%; pest or weed control at 62.5 g/ha [11]: 0%; pest or weed control at 250 g/ha [11]: 0%; pest or weed control at 15.625 g/ha [12]: 0%; pest or weed control at 62.5 g/ha [12]: 0%; pest or weed control at 250 g/ha [12]: 0%
3 | CN1C[C@@H](c2ccc(C(F)(F)F)cc2)[C@H](C(=O)Nc2cc(C(F)(F)F)[nH]n2)C1=O (racemic) [Compound 1530] | 0% | 0% | 0% | 0% | 0% | 0% | 0% | 0% | 0% | 0% | 0% | 0% | 0% | 0% | 0% | 0% | 0% | 0% | 0% | 0% | pest or weed control at 250 g/ha [7]: 0%; pest or weed control at 15.625 g/ha [8]: 0%; pest or weed control at 62.5 g/ha [8]: 0%; pest or weed control at 250 g/ha [8]: 0%; pest or weed control at 15.625 g/ha [9]: 0%; pest or weed control at 62.5 g/ha [9]: 0%; pest or weed control at 250 g/ha [9]: 0%; plant injury at 15.625 g/ha [10]: 0%; plant injury at 62.5 g/ha [10]: 0%; plant injury at 250 g/ha [10]: 0%; pest or weed control at 15.625 g/ha [11]: 0%; pest or weed control at 62.5 g/ha [11]: 0%; pest or weed control at 250 g/ha [11]: 0%; pest or weed control at 15.625 g/ha [12]: 0%; pest or weed control at 62.5 g/ha [12]: 0%; pest or weed control at 250 g/ha [12]: 0%
